How the values were obtained:
Type in all cases: biochemical
Parameters in all cases: from tissue; host or cells: mouse brain membrane fraction
Conditions in all cases: 30 min preincubation at 37° C.
[1] = target: T1, FAAH (Mus musculus, UniProt O08914); assay: In vitro competitive activity-based protein profiling (FP-Rh), mouse FAAH
T1 sequence (O08914 1-579): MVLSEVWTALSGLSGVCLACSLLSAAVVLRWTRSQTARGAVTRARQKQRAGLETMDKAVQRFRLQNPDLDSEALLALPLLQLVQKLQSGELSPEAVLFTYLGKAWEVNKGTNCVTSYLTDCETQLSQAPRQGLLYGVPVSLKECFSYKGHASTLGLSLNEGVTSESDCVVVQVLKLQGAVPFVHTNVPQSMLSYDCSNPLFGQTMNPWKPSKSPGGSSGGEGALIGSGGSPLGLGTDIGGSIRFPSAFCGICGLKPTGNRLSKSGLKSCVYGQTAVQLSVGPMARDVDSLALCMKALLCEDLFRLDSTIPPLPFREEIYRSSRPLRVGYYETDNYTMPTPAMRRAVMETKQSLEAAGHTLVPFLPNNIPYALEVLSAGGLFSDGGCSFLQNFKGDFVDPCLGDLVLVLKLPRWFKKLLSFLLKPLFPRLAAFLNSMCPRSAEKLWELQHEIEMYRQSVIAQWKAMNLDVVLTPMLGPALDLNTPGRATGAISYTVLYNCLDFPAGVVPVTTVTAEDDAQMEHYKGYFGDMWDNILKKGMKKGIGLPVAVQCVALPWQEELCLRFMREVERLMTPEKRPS
Method: (§1) In Vitro Competitive Activity-Based Protein Profiling.
(§2) Proteomes (mouse brain membrane fraction or cell lysates) (50 μL, 1.0 mg/ml total protein concentration) were preincubated with varying concentrations of inhibitors at 37° C. After 30 min, FP-Rh (1.0 μL, 50 μM in DMSO) was added and the mixture was incubated for another 30 min at 37° C. Reactions were quenched with SDS loading buffer (50 μL—4×) and run on SDS-PAGE.

[2] = target: T2, ABHD6 (Mus musculus, UniProt Q8R2Y0); assay: In vitro competitive activity-based protein profiling (FP-Rh), mouse ABHD6
T2 sequence (Q8R2Y0 1-336): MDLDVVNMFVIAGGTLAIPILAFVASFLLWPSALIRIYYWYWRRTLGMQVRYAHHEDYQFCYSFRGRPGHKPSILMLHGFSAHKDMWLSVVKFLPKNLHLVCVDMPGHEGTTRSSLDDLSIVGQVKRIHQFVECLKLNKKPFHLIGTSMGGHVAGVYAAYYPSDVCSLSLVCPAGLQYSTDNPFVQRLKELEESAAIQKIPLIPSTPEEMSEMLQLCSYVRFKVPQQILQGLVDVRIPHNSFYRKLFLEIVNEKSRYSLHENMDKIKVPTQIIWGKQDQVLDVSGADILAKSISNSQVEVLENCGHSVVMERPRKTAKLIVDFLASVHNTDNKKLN
Method: as §1, §2

[3] = target: T3, MAGL (Mus musculus, UniProt O35678); assay: In vitro competitive activity-based protein profiling (FP-Rh), mouse MAGL
T3 sequence (O35678 1-303): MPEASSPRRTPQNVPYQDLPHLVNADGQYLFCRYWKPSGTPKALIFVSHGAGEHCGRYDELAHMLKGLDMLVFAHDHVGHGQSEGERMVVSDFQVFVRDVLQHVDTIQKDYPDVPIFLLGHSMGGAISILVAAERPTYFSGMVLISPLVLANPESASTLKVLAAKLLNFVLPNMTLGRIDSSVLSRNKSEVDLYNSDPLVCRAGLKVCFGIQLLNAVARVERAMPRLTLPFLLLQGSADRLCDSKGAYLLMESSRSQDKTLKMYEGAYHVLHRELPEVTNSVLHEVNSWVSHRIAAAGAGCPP
Method: as §1, §2

Structure (SMILES)	IC50 ([1]; Table 1, mouse proteome) [nM]	IC50 ([2]; Table 1, mouse proteome) [nM]	IC50 ([3]; Table 1, mouse proteome) [nM]	IC50 ([1]; Table 2, mouse proteome) [nM]	IC50 ([2]; Table 2, mouse proteome) [nM]	IC50 ([3]; Table 2, mouse proteome) [nM]
C#CCCCCNC(=O)ON1C(=O)CCC1=O [Example 28, 2,5-Dioxopyrrolidin-1-yl N-(hex-5-yn-1-yl)carbamate]	1000 to 10000	1000 to 10000	> 10000			
O=C(ON1C(=O)CCC1=O)N1CCCC1 [Example 29, 2,5-Dioxopyrrolidin-1-yl pyrrolidine-1-carboxylate]	> 10000	> 10000	> 10000			
O=C(ON1C(=O)CCC1=O)N1CCC1 [Example 30, 2,5-Dioxopyrrolidin-1-yl azetidine-1-carboxylate]	> 10000	> 10000	> 10000			
CCCCCCCC/C=C\CCCCCCCCNC(=O)ON1C(=O)CCC1=O [Example 31, 2,5-Dioxopyrrolidin-1-yl N-[(9Z)-octadec-9-en-1-yl]carbamate]	1000 to 10000	1000 to 10000	1000 to 10000			
O=C(ON1C(=O)c2ccccc2C1=O)N1CCC(CCc2ccc(Cl)cc2)CC1 [Example 32, 1,3-Dioxo-2,3-dihydro-1H-isoindol-2-yl 4-[2-(4-chlorophenyl)ethyl]piperidine-1-carboxylate]	< 100	< 100	1000 to 10000			
O=C(ON1C(=O)c2ccccc2C1=O)N1CCN(C(c2ccc(Cl)cc2)c2ccc(Cl)cc2)CC1 [Example 33, 1,3-Dioxo-2,3-dihydro-1H-isoindol-2-yl 4-[bis(4-chlorophenyl)methyl]piperazine-1-carboxylate]	> 10000	100 to 1000	> 10000			
O=C(ON1C(=O)CCC1=O)N1CCOCC1 [Example 38, 2,5-Dioxopyrrolidin-1-yl morpholine-4-carboxylate]	> 10000	> 10000	> 10000			
O=C(ON1C(=O)C2CCCCC2C1=O)N1CCN(C(c2ccc(Cl)cc2)c2ccc(Cl)cc2)CC1 (stereo not drawn) [Example 45, 1,3-Dioxohexahydro-1H-isoindol-2(3H)-yl 4-(bis(4-chlorophenyl)methyl)piperazine-1-carboxylate]	> 10000	100 to 1000	1000 to 10000			
CC(C)C1NC(=O)N(OC(=O)N2CCN(C(c3ccc(Cl)cc3)c3ccc(Cl)cc3)CC2)C1=O (stereo not drawn) [Example 47, 4-Isopropyl-2,5-dioxoimidazolidin-1-yl 4-(bis(4-chlorophenyl)methyl)piperazine-1-carboxylate]	> 10000	100 to 1000	100 to 1000			
O=C(ON1C(=O)CNC1=O)N1CCC(CCc2ccc(Cl)cc2)CC1 [Example 48, 2,5-Dioxoimidazolidin-1-yl 4-(4-chlorophenethyl)piperidine-1-carboxylate]	< 100	< 100	< 100			
CN1CC(=O)N(OC(=O)N2CCC(CCc3ccc(Cl)cc3)CC2)C1=O [Example 49, 3-Methyl-2,5-dioxoimidazolidin-1-yl 4-(4-chlorophenethyl)piperidine-1-carboxylate]	100 to 1000	< 100	< 100			
COc1ccc(N2CCN(C(=O)ON3C(=O)CC(C)(C)C3=O)CC2)cc1 [Example 52, 3,3-Dimethyl-2,5-dioxopyrrolidin-1-yl 4-(4-methoxyphenyl)piperazine-1-carboxylate]	> 10000	100 to 1000	> 10000			
COc1ccc(N2CCN(C(=O)ON3C(=O)C4CCCCC4C3=O)CC2)cc1 (stereo not drawn) [Example 53, 1,3-Dioxohexahydro-1H-isoindol-2(3H)-yl 4-(4-methoxyphenyl)piperazine-1-carboxylate]	> 10000	< 100	> 10000			
CN1CC(=O)N(OC(=O)N2CCN(C(c3ccc(Cl)cc3)c3ccc(Cl)cc3)CC2)C1=O [Example 56, 3-Methyl-2,5-dioxoimidazolidin-1-yl 4-(bis(4-chlorophenyl)methyl)piperazine-1-carboxylate]	> 10000	100 to 1000	< 100			
CN(C)C(=O)ON1C(=O)CCC1=O [Example 57, 2,5-Dioxopyrrolidin-1-yl dimethylcarbamate]	> 10000	> 10000	> 10000			
CN(C)C(=O)ON1C(=O)CC(c2ccccc2)C1=O (stereo not drawn) [Example 59, 2,5-Dioxo-3-phenylpyrrolidin-1-yl dimethylcarbamate]	> 10000	> 10000	> 10000			
O=C(ON1C(=O)CNC1=O)N1CCCCC1 [Example 61, 2,5-Dioxoimidazolidin-1-yl piperidine-1-carboxylate]	> 10000	> 10000	> 10000			
O=C(ON1C(=O)CCC1=O)N1CCN(Cc2ccc(N3CCOCC3)cc2F)CC1 [Example 62, 2,5-Dioxopyrrolidin-1-yl 4-(2-fluoro-4-morpholinobenzyl)-piperazine-1-carboxylate]				> 10000	1000 to 10000	1000 to 10000
O=C(ON1C(=O)CCC1=O)N1CCN(Cc2ccc(Br)cc2N2CCCCC2)CC1 [Example 65, 2,5-Dioxopyrrolidin-1-yl 4-(4-bromo-2-(piperidin-1-yl)benzyl)piperazine-1-carboxylate]				1000 to 10000	100 to 1000	< 100

Continued, values first:

IC50 ([1]; Table 1, mouse proteome) [nM]	IC50 ([2]; Table 1, mouse proteome) [nM]	IC50 ([3]; Table 1, mouse proteome) [nM]	IC50 ([1]; Table 2, mouse proteome) [nM]	IC50 ([2]; Table 2, mouse proteome) [nM]	IC50 ([3]; Table 2, mouse proteome) [nM]	Structure (SMILES)
100 to 1000	< 100	> 10000				COc1ccc(N2CCN(C(=O)ON3C(=O)c4ccccc4C3=O)CC2)cc1 [Example 34, 1,3-Dioxo-2,3-dihydro-1H-isoindol-2-yl 4-(4-methoxyphenyl)piperazine-1-carboxylate]
> 10000	1000 to 10000	1000 to 10000				CC1(C)CC(=O)N(OC(=O)N2CCN(C(c3ccc(Cl)cc3)c3ccc(Cl)cc3)CC2)C1=O [Example 42, 3,3-Dimethyl-2,5-dioxopyrrolidin-1-yl 4-(bis(4-chlorophenyl)methyl)piperazine-1-carboxylate]
> 10000	100 to 1000	100 to 1000				CCCC1CC(=O)N(OC(=O)N2CCN(C(c3ccc(Cl)cc3)c3ccc(Cl)cc3)CC2)C1=O (stereo not drawn) [Example 43, 2,5-Dioxo-3-propylpyrrolidin-1-yl 4-(bis(4-chlorophenyl)methyl)piperazine-1-carboxylate]
> 10000	1000 to 10000	1000 to 10000				O=C(ON1C(=O)CC(c2ccccc2)C1=O)N1CCN(C(c2ccc(Cl)cc2)c2ccc(Cl)cc2)CC1 (stereo not drawn) [Example 44, 2,5-Dioxo-3-phenylpyrrolidin-1-yl 4-(bis(4-chlorophenyl)methyl)piperazine-1-carboxylate]
< 100	< 100	100 to 1000				O=C(ON1C(=O)CN(Cc2ccccc2)C1=O)N1CCC(CCc2ccc(Cl)cc2)CC1 [Example 50, 3-Benzyl-2,5-dioxoimidazolidin-1-yl 4-(4-chlorophenethyl)piperidine-1-carboxylate]
1000 to 10000	< 100	1000 to 10000				COc1ccc(N2CCN(C(=O)ON3C(=O)CC(c4ccccc4)C3=O)CC2)cc1 (stereo not drawn) [Example 54, 2,5-Dioxo-3-phenylpyrrolidin-1-yl 4-(4-methoxyphenyl)piperazine-1-carboxylate]
1000 to 10000	< 100	> 10000				COc1ccc(N2CCN(C(=O)ON3C(=O)NC(C(C)C)C3=O)CC2)cc1 (stereo not drawn) [Example 55, 4-Isopropyl-2,5-dioxoimidazolidin-1-yl 4-(4-methoxyphenyl)piperazine-1-carboxylate]
> 10000	> 10000	> 10000				O=C(ON1C(=O)CC(c2ccccc2)C1=O)N1CCCCC1 (stereo not drawn) [Example 60, 2,5-Dioxo-3-phenylpyrrolidin-1-yl piperidine-1-carboxylate]
